Results reported in patent US11014884B2 (Global Blood Therapeutics, Inc., priority 2018, dated 2021).

Legend:
hemoglobin = target: T1, hemoglobin (Homo sapiens, UniProt P69905); test: Whole blood assay: oxygen equilibrium curves (Hemox Analyzer), change in p50; type: cell-based; details: whole blood 20% Hct (1 mM Hb), compound 1 mM, equimolar to hemoglobin, 1 h at 37° C.
T1 construct: from tissue; host or cells: whole blood (red blood cells)
Experimental: Oxygen equilibrium curves (OECs) were collected using a TCS Hemox Analyzer (TCS Scientific Company, New Hope, Pa., USA) to measure changes in the binding affinity of 02 to Hb. Whole blood was incubated for 1 h at 37° C. with the indicated compounds in an equimolar ratio of hemoglobin to compound and diluted into TES (2-[[1,3-dihydroxy-2-(hydroxymethyl)propan-2-yl]amino]ethanesulfonic acid)/saline buffer prior to measurements. For example, for whole blood at 20% hematocrit [Hct], which corresponds to 1 mM Hb, a compound concentration of 1 mM was used (for example, for compounds 1-53), and the incubated sample diluted 50- to 100-fold. The concentration for compound 54 was 1.7 mM and in equimolar ratio to hemoglobin. The diluted samples were then oxygenated with compressed air within the Hemox Analyzer, and the OECs were collected during deoxygenation as previously described (Guarnone et al., Haematologica, 1995, 80, 426-430). p50 (partial pressure of 02 at which Hb is 50% saturated with 02) values were obtained using a non-linear regression analysis. Percentage change in p50 [Δp50(%)] was calculated as follows: Δp50(%)=[(p50 of control)−p50 with compound)/p50 control]×100.

Human CO-HbS = target: T2, Human CO-HbS (Homo sapiens, UniProt P69905); test: Crystallography of CO-liganded HbS with compound; details: CO-HbS 0.8 mM, compound 1 mM
T2 construct: Purified HbS was prepared from blood using a combination of gel filtration and anion exchange chromatography; from tissue; host or cells: blood
Experimental: Purified HbS was prepared from blood using a combination of gel filtration and anion exchange chromatography. Following preparation, the purified HbS solution was concentrated to 1 mM in a volume of 1 mL using a Vivaspin 20 concentrator (GE healthcare) via centrifugation at room temperature in an Eppendorf 5810 R centrifuge. The concentrated HbS solution was then buffer exchanged into potassium phosphate buffer by mixing 1 mL of concentrated HbS solution with 20 mL of 1.8 M potassium phosphate buffer, pH 7.4 and re-concentrating back to 1 mL using a Vivaspin 20. This process was repeated twice and aliquots of the resulting HbS solution were flash frozen using liquid nitrogen and stored at −80° C. To prepare HbS-CO, purified HbS was first saturated with CO for five hours before it was buffer exchanged into 20 mM Hepes buffer, pH 7.4, and concentrated to 3 mM.
Human CO-HbS was crystallized using sitting drop vapor diffusion method. Freshly prepared CO-HbS at 0.8 mM and buffered with 20 mM HEPES pH 7.4 was mixed with compounds (specifically, Compound 1 and Compound 2) at a final concentration of 1 mM. […] The appearance of hemoglobin crystals was monitored visually and microscopically every 48-72 hours after beginning of the experiments. […]

[1] = Pharmacokinetics in rats following 10 mg/kg oral administration; type: in vivo; details: Sprague-Dawley, rat, PO 10 mg/kg
Experimental: The pharmacokinetic (PK) profile of Compound 2 was characterized in Sprague-Dawley rats following oral administration of 10 mg/kg. Blood and plasma samples were serially collected from each animal up to 240 h post-dose and analyzed for their concentrations using LC/MS. The analytical range was 100 to 100,000 ng/ml for both plasma and blood samples. Blood and plasma concentrations of Compound 2 were analyzed by non-compartmental analysis using Phoenix WinNonlin software (version 6-4; Pharsight Inc., Cary, N.C., USA) to obtain pharmacokinetic parameters, including half-life (T½) and area under the curve (AUC). AUClast refers to the area under the curve calculated from t=0 to the last detectable time-point. Blood to plasma concentration ratio was calculated from a ratio of AUClast in blood divided by AUClast in plasma.
Blood pharmacokinetic parameters in rat were determined in individual animals and reported as mean.

T2 sequence (P69905 2-142 limits assumed): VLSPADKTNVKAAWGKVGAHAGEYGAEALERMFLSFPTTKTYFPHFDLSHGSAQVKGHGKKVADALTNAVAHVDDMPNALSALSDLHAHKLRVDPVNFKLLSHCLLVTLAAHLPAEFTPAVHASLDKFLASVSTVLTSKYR
T1 sequence (P69905 2-142 limits assumed): as above
T1 sequence (P68871 2-147 partner limits assumed): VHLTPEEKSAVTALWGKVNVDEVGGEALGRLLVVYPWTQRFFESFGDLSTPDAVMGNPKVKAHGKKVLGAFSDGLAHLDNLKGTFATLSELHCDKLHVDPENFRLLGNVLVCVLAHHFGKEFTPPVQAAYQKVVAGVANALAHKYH

Row | SMILES | Delta-p50 (%) (hemoglobin) | binding sites on hemoglobin (crystal structure) (Human CO-HbS) | blood plasma ratio ([1]; blood and plasma, AUClast in blood divided by AUClast in plasma) | AUC(0-t) ([1]; whole blood, blood, 0.5% MC, mean of N=3) | half-life ([1]; whole blood, blood, 0.5% MC, mean of N=3, read-out: T½ (converted))
1 | O=Cc1c(O)cccc1OC[C@@H]1CCCCN1C(=O)c1cccc(O)c1C=O [Compound 1, 2-[(2S)-2-[(2-formyl-3-hydroxyphenoxy)methyl]piperidine-1-carbonyl]-6-hydroxybenzaldehyde] | 75.8% | two distinct areas of hemoglobin |  |  | 
2 | O=Cc1ccccc1C(=O)N1CCCC[C@H]1COc1cccc(O)c1C=O [Compound 2, 2-{[(2S)-1-(2-formylbenzoyl)piperidin-2-yl]methoxy}-6-hydroxybenzaldehyde] | 78.3% | two distinct areas of hemoglobin | 937 | 239 µg·h/mL | 187 h
